Assay results reported in US20240215579A1, “USE OF ANTI-CLOTTING COMPOUNDS AS RODENTICIDES” (priority 2021, published 2024).

Tested on: pest rodents
Assay: Pest rodent bait compositions in standard chow: mortality
Format: in vivo, rats
From the text: The basic bait composition (standard chow) used consisted of 65% maize, 25% oat flakes, […], 3% refined finely granulated sugar, and 1% fine table salt.
The Pgp inhibitors were used at the following listed concentration.

In the case of `C[C@@H](c1ncncc1F)[C@](O)(Cn1cncn1)c1ccc(F)cc1F` [voriconazole], the “Mortality in words, Pgp inhibitor combined with active clotting inhibitors” value (bait, combination with different active clotting inhibitors) was “high mortality” and the “Efficacy as Pgp inhibitor in the context of the invention” value (compared to other Pgp inhibiting substances) was “highly effective”.
